In patent US20260232693A1, “IMPROVING GLYMPHATIC-LYMPHATIC EFFLUX” (UNIVERSITY OF ROCHESTER, priority 2023, published 2026):
Entries after “also recorded” stand apart in the source; their conditions may differ.

Tests used:
Assay type in all cases: in vivo, C57BL/6 mice
[1] = tested on: cervical lymphatic vessels (cLVs); assay: 2P-OPTIC two-photon imaging with particle tracking of cervical lymphatic vessel contraction and flow, before and after topical PGF2α; settings: for decrease in retrograde fraction / ejection rate / increase in ejection fraction / increase in ejection volume / median vessel diameter: after vs before PGF2α; for retrograde fraction after PGF2α / ejection fraction after PGF2α: mean±SEM; for increase in intrinsic pulsation rate: after vs before topical PGF2α 5 μM
[2] = Measurement of vital signs (heart and respiratory rate) before and after PGF2α; settings: topical PGF2α; young and old mice
Protocol: Heart and respiratory rate were measured using a small animal physiological monitoring 494 device (Harvard Apparatus) which acquired measurements at 1 kHz and 250 Hz, respectively. The signals were digitized and recorded with a DigiData 1550A digitizer and AxoScope software 496 (Axon Instruments).

[3] = tested on: cervical lymph nodes (cLNs); assay: Ex vivo cervical lymph node imaging of OVA-647 accumulation; settings: 90 min
Protocol: One microliter PBS with or without 5 μM PGF2a was applied directly onto the cervical lymph vessel simultaneously with the injection of OVA-647 (0.5% w/v, 45 kDa, Invitrogen, 10 μL, 2 μL/min) into cisterna magna for 90 min. Then the superficial and deep cervical lymph nodes were dissected and put on the microscope slices (Fisherbrand). The lymph nodes were placed under the macroscope (MVX10 Research Macro Zoom Microscope, 633 Olympus). The images were acquired in the far-red emission channel (647 nm).

[4] = tested on: cervical lymphatic vessels (cLVs); assay: Epi-fluorescent macroscopic imaging of OVA-647 CSF tracer drainage in cervical lymphatic vessels; settings: 60 min imaging, 5 μM PGF2α topical
Protocol: Ovalbumin-conjugated to Alexa Fluor 647 (OVA-647, 0.5% w/v, 45 kDa, Invitrogen, 10 μL, 2 μL/min) was injected into the cisterna magna through a 30G needle connected to PE-10 tubing using a syringe pump (Harvard Apparatus). Cervical lymphatic vessels were surgically exposed as before and imaged using a fluorescent macroscope (MVX10, Olympus) with a PRIOR Lumen 1600-LED light source and ORCA Flash 4.0 digital camera (Hamamatsu) using Metamorph software. The images at 20× magnification from the far-red emission channel (647 nm) were collected at 1 min intervals for 60 min following the start of the injection. Exposure time was kept constant across all the experimental groups. One microliter PBS with or without 5 μM PGF2a was applied directly onto the cervical lymph vessel simultaneously with the injection of OVA-647 into cisterna magna.

[5] = tested on: superficial cervical lymph vessels; assay: DB53 brain clearance assay (intrastriatal injection, brain retention and femoral vein signal)
Protocol: Clearance assay was conducted using our published method (Pla, V. et al. A real-time in vivo clearance assay for quantification of glymphatic efflux. Cell Rep 40, 111320 (2022)). Briefly, anesthetized mice were mounted in a stereotactic apparatus and a small burr hole was made (AP+0.6 mm; ML-2.0 mm). A guide cannula (26G, […] SPC, 4.5 mm below pedestal) and dummy cannula ([…], 0.1 mm projection) was placed at DV 3.3 mm. After 48 hr, the dummy cannula was replaced by the inner cannula (33G, […]/SP, 0.1 mm projection), connected by a PE10 tubing to a 10 μL Hamilton syringe containing 4% (w/v) DB53 in sterile aCSF. The left femoral vein was exposed via skin resection and was placed under a fluorescent macroscope (microscope: MVX10, Olympus; light: PRIOR Lumen 1600-LED; camera: Flash 4.0 digital, Hamamatsu). The pump infusion (1 μL, […]) was triggered simultaneously with the imaging over the vein, once every 15 min for 2 h for the intraparenchymal delivery. […] At the end of the experiment, animals were decapitated, and their brains were harvested for postmortem analysis. For quantitative image analysis for femoral vein and ex vivo in the brain is the same as described in Pla, V. et al. A real-time in vivo clearance assay for quantification of glymphatic efflux. Cell Rep 40, 111320 (2022).

CCCCC[C@H](O)/C=C/[C@@H]1[C@@H](C/C=C\CCCC(=O)O)[C@@H](O)C[C@H]1O [PGF2α, prostaglandin F2α]
decrease in retrograde fraction ([1]; 2-month-old mice): 64.2%
ejection rate ([1]; 2-month-old mice): no change
increase in ejection fraction ([1]; 2-month-old mice): 7.0%
increase in ejection volume ([1]; 2-month-old mice): 148.6%
median vessel diameter ([1]; 2-month-old mice): decreased
retrograde fraction after PGF2α ([1]; 2-month-old mice, before: 8.1±1.0): 2.9±0.6%
ejection fraction after PGF2α ([1]; 2-month-old mice, before: 90.8±0.8): 97.1±0.6%
increase in CSF drainage (number of microsphere particles detected in cLVs) ([1]; 2-month-old mice, intracisternal fluorescent microspheres): 35.4%
decrease in retrograde fraction ([1]; 22-month-old mice): 83.6%
ejection rate ([1]; 22-month-old mice): no change
increase in ejection fraction ([1]; 22-month-old mice): 31.7%
increase in ejection volume ([1]; 22-month-old mice): 181.4%
median vessel diameter ([1]; 22-month-old mice): decreased
retrograde fraction after PGF2α ([1]; 22-month-old mice, before: 27.5±2.1): 4.5±0.4%
ejection fraction after PGF2α ([1]; 22-month-old mice, before: 72.5±2.1): 95.5±0.5%
solute arriving to the cLN (particle count) compared to untreated aged controls ([1]; aged mice, intracisternal fluorescent microspheres): ~4 times
increase in intrinsic pulsation rate ([1]; old (22-month-old) mice): 152.0%
increase in flow speeds ([1]; old mice, after vs before topical PGF2α): 3.5 fold
contraction amplitude (Δd) ([1]; vs before PGF2α): increased
increase in intrinsic pulsation rate ([1]; young (2-month-old) mice): 50.7%
increase in downstream speed ([1]; young mice, after vs before topical PGF2α): 103.1%
respiratory rate [2]: did not induce changes; also recorded: unaffected
accumulation of OVA647 in cLNs, ex vivo ([3]; 2-month-old mice): significantly larger accumulation
accumulation of OVA647 in cLNs, ex vivo ([3]; 22-month-old mice): significantly larger accumulation
CSF drainage of OVA647 tracer (fluorescence intensity in cLVs) ([4]; old (22-month-old) mice): promoted robust CSF drainage
CSF drainage of OVA647 tracer (fluorescence intensity in cLVs) ([4]; young mice): promoted robust CSF drainage
DB53 signal in the femoral vein ([5]; 75 min, control 4.6±0.8): 8.3±1.3
DB53 signal in the femoral vein ([5]; 90 min, control 5.5±0.6): 10.3±1.5
DB53 signal in the femoral vein ([5]; 105 min, control 6.6±0.7): 10.8±1.4
DB53 signal in the femoral vein ([5]; 120 min, control 6.8±0.7): 11.45±8.3
DB53 signal in the femoral vein (brain clearance to plasma), overall vs control ([5]; 2 h imaging): dramatically increased
DB53 retained in the brain (% area of DB53 fluorescence) ([5]; after intrastriatal DB53, control 10.1±1.3, mean±SEM): 6.3±0.9 % area
